Assay results taken from ChEMBL document CHEMBL1201862, “PubChem BioAssay data set” (2004).
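All cell lines were grown in 96-well plates and treated with compound for 48 hours. GI50 is the concentration that inhibits growth by half.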 Active and inactive are the calls of the source. Cut-off read from the data, not from the text of the source: active = GI50 up to about 1.1 µM and inactive = higher.

Tests used:
Assay in all cases: inhibition of tumour cell growth, NCI panel, 48 h
M14 = test system: M14
786-0 = test system: 786-0
UACC-62 = test system: UACC-62
SNB-19 = test system: SNB-19
SK-MEL-5 = test system: SK-MEL-5
SF-539 = test system: SF-539
KM-20L2 = test system: KM-20L2
EKVX = test system: EKVX
KM12 = test system: KM12
HT-29 = test system: HT-29
NCI-H226 = test system: NCI-H226
TK-10 = test system: TK-10
SK-OV-3 = test system: SK-OV-3
MOLT-4 = test system: MOLT-4
HCT-15 = test system: HCT-15
HCT-116 = test system: HCT-116
CCRF-CEM = test system: CCRF-CEM
SW-620 = test system: SW-620
CAKI-1 = test system: CAKI-1
K562 = test system: K562
HL-60 = test system: HL-60
M19-MEL = test system: M19-MEL
RPMI-8226 = test system: RPMI-8226
SN12C = test system: SN12C
OVCAR-5 = test system: OVCAR-5
U-251 = test system: U-251
SNB-75 = test system: SNB-75
A498 = test system: A498
SR = test system: SR
HOP-62 = test system: HOP-62
OVCAR-8 = test system: OVCAR-8
A549 = test system: A549
DLD-1 = test system: DLD-1
HOP-92 = test system: HOP-92
NCI-H23 = test system: NCI-H23
LOX IMVI = test system: LOX IMVI
UO-31 = test system: UO-31
RXF 393 = test system: RXF 393
NCI-H522 = test system: NCI-H522
IGROV-1 = test system: IGROV-1
SF-295 = test system: SF-295
HOP-18 = test system: HOP-18
UACC-257 = test system: UACC-257
COLO 205 = test system: COLO 205
NCI-H460 = test system: NCI-H460
HCC 2998 = test system: HCC 2998
OVCAR-3 = test system: OVCAR-3
Malme-3M = test system: Malme-3M
ACHN = test system: ACHN
LXFL 529 = test system: LXFL 529
SK-MEL-2 = test system: SK-MEL-2
SNB-78 = test system: SNB-78
OVCAR-4 = test system: OVCAR-4
SK-MEL-28 = test system: SK-MEL-28
SF-268 = test system: SF-268
DMS-114 = test system: DMS-114
DMS-273 = test system: DMS-273

Cc1cccc(C)c1NC(=O)CCC(=O)NC(N)=S
GI50 (M14): > 100 µM (inactive)
GI50 (786-0): > 100 µM (inactive)
GI50 (UACC-62): > 100 µM (inactive)
GI50 (SNB-19): > 100 µM (inactive)
GI50 (SK-MEL-5): > 100 µM (inactive)
GI50 (SF-539): > 100 µM (inactive)
GI50 (KM-20L2): > 100 µM (inactive)
GI50 (EKVX): > 100 µM (inactive)
GI50 (KM12): > 100 µM (inactive)
GI50 (HT-29): > 100 µM (inactive)
GI50 (NCI-H226): > 100 µM (inactive)
GI50 (TK-10): > 100 µM (inactive)
GI50 (SK-OV-3): > 100 µM (inactive)
GI50 (MOLT-4): > 100 µM (inactive)
GI50 (HCT-15): > 100 µM
GI50 (HCT-116): > 100 µM (inactive)
GI50 (CCRF-CEM): > 100 µM (inactive)
GI50 (SW-620): > 100 µM (inactive)
GI50 (CAKI-1): > 100 µM (inactive)
GI50 (K562): > 100 µM (inactive)
GI50 (HL-60): > 100 µM (inactive)
GI50 (M19-MEL): > 100 µM (inactive)
GI50 (RPMI-8226): > 100 µM (inactive)
GI50 (SN12C): > 100 µM (inactive)
GI50 (OVCAR-5): > 100 µM (inactive)
GI50 (U-251): > 100 µM (inactive)
GI50 (SNB-75): > 100 µM (inactive)
GI50 (A498): > 100 µM (inactive)
GI50 (SR): > 100 µM (inactive)
GI50 (HOP-62): > 100 µM (inactive)
GI50 (OVCAR-8): > 100 µM (inactive)
GI50 (A549): > 100 µM (inactive)
GI50 (DLD-1): > 100 µM (inactive)
GI50 (HOP-92): > 100 µM (inactive)
GI50 (NCI-H23): > 100 µM (inactive)
GI50 (LOX IMVI): > 100 µM (inactive)
GI50 (UO-31): > 100 µM (inactive)
GI50 (RXF 393): > 100 µM (inactive)
GI50 (NCI-H522): > 100 µM (inactive)
GI50 (IGROV-1): > 100 µM (inactive)
GI50 (SF-295): > 100 µM (inactive)
GI50 (HOP-18): > 100 µM (inactive)
GI50 (UACC-257): > 100 µM (inactive)
GI50 (COLO 205): > 100 µM (inactive)
GI50 (NCI-H460): > 100 µM (inactive)
GI50 (HCC 2998): > 100 µM (inactive)
GI50 (OVCAR-3): > 100 µM (inactive)
GI50 (Malme-3M): > 100 µM (inactive)
GI50 (ACHN): > 100 µM (inactive)
GI50 (LXFL 529): > 100 µM (inactive)

Cc1ccc(NC(=O)SCCC(=O)O)cc1NC(=O)SCCC(=O)O
GI50 (M14): > 100 µM (inactive)
GI50 (786-0): > 100 µM (inactive)
GI50 (SNB-19): > 100 µM (inactive)
GI50 (SK-MEL-2): > 100 µM (inactive)
GI50 (SF-539): > 100 µM (inactive)
GI50 (KM-20L2): > 100 µM (inactive)
GI50 (EKVX): > 100 µM (inactive)
GI50 (KM12): > 100 µM (inactive)
GI50 (HT-29): > 100 µM (inactive)
GI50 (NCI-H226): > 100 µM (inactive)
GI50 (SNB-78): > 100 µM (inactive)
GI50 (TK-10): > 100 µM (inactive)
GI50 (MOLT-4): > 100 µM (inactive)
GI50 (HCT-15): > 100 µM
GI50 (HCT-116): > 100 µM (inactive)
GI50 (CCRF-CEM): > 100 µM (inactive)
GI50 (SW-620): > 100 µM (inactive)
GI50 (CAKI-1): > 100 µM (inactive)
GI50 (K562): > 100 µM (inactive)
GI50 (HL-60): > 100 µM (inactive)
GI50 (RPMI-8226): > 100 µM (inactive)
GI50 (SN12C): > 100 µM (inactive)
GI50 (OVCAR-5): > 100 µM (inactive)
GI50 (U-251): > 100 µM (inactive)
GI50 (A498): > 100 µM (inactive)
GI50 (SR): > 100 µM (inactive)
GI50 (OVCAR-4): > 100 µM (inactive)
GI50 (SK-MEL-28): > 100 µM (inactive)
GI50 (SF-268): > 100 µM (inactive)
GI50 (HOP-62): > 100 µM (inactive)
GI50 (OVCAR-8): > 100 µM (inactive)
GI50 (A549): > 100 µM (inactive)
GI50 (DLD-1): > 10 µM (inactive)
GI50 (DMS-114): > 100 µM (inactive)
GI50 (NCI-H23): > 100 µM (inactive)
GI50 (LOX IMVI): > 100 µM (inactive)
GI50 (UO-31): > 100 µM (inactive)
GI50 (RXF 393): > 100 µM (inactive)
GI50 (NCI-H522): > 100 µM (inactive)
GI50 (IGROV-1): > 100 µM (inactive)
GI50 (SF-295): > 100 µM (inactive)
GI50 (UACC-257): > 100 µM (inactive)
GI50 (COLO 205): > 10 µM (inactive)
GI50 (NCI-H460): > 100 µM (inactive)
GI50 (HCC 2998): > 100 µM (inactive)
GI50 (OVCAR-3): > 100 µM (inactive)
GI50 (ACHN): > 100 µM (inactive)
GI50 (DMS-273): > 10 µM (inactive)
GI50 (LXFL 529): > 100 µM (inactive)
